Data published in patent publication US12495801B2, “Bacillus subtilis JCK-1398 strain inducing resistance in various plants, and composition and method for controlling pine wilt disease by using same” (Republic of Korea (National institute of forest science), priority 2020, dated 2025).

Tests used:
Assay type in all cases: in vivo
[1] = tested on: Bursaphelenchus xylophilus; experiment: Pine wilt disease control by culture, culture filtrate and cell fraction (Example 6); settings: samples at OD 0.8, 5 ml foliar spray; EB 20 mg/ml by trunk injection
Method: The JCK-1398 strain was cultured by the same method as in Example 4-1 and adjusted to an optical density value of 0.8.
The culture of the JCK-1398 strain was separated into a culture filtrate and a cell fraction by centrifugation (1,300 rpm, 15 min). The precipitated cell fraction was suspended by addition of the same volume of phosphate-buffered saline used before centrifugation. Each pine tree was sufficiently pre-treated with 5 ml of Tween® 20 (250 μg/ml) and then dried for 2 hours, so as to enable each sample (a culture, a culture filtrate, and a cell fraction) to be well adsorbed into leaves. Then, each of the culture, culture filtrate, and cell fraction was dissolved in an aqueous solution containing Tween® 20 (250 μg/ml) to an optical density value of 0.8, and then placed in a fine sprayer and each pine tree was foliar-sprayed with 5 ml of each sample. The nematicidal substance emamectin benzoate as a control group was dissolved in an aqueous solution containing 10% methanol to 20 mg/ml, followed by trunk injection.

[2] = tested on: Bursaphelenchus xylophilus; experiment: Pine wilt disease field tests, Pinus densiflora adult trees aged 15 years (Example 9); settings: for Disease severity (%): adult trees, JCK-1398 = 50-fold diluted spray-dried powder foliar spray, EB = A-Pharm trunk injection; for Control value (%): foliar spray, EB by trunk injection
Method: Based on the above results, the field test was additionally performed using Pinus densiflora adult trees aged 15 years (root diameter: 8-11 cm, height: 6-8 m) in order to investigate the control effect of the Bacillus subtilis JCK-1398 strain against pine wilt disease in adult trees. The field test was performed twice in 2018 (first field test) and 2019 (second field test). In the first field test, a spray-dried powder of a culture of the JCK-1398 strain (prepared by the same method as in Example 8) was used, and in the second field test, a spray-dried powder of a culture of the JCK-1398 strain was formulated into JCK-1398 20% SC (emulsion) before use. The JCK-1398 20% SC formulation was formulated with a composition of a JCK-1398 spray-dried powder (20.0%), CR-NF 135B (4.5%), xanthan gum (0.03%), a defoamer (0.1%), and water (75.37%).
The spray-dried powder of the culture of the JCK-1398 strain and the JCK-1398 20% SC formulation were diluted 50-fold and 2000-fold, respectively, in an aqueous solution containing 250 μg/ml Tween® 20, and then placed in a sprayer, and each pine tree was foliar-sprayed with about 1 L of each diluted solution. The treatment by foliar spraying was performed twice at an interval of 1 month. One week after each second treatment, each pine tree was inoculated, by trunk injection, with Bursaphelenchus xylophilus at 20,000 nematodes in the first field test and at 10,000 nematodes in the second field test. For a control group, A-Pharm (emamectin benzoate 2.15%, emulsion, Syngenta) was applied at 1 ml per diameter at breast by trunk injection, and the A-Pharm was applied once 1 week before the inoculation with Bursaphelenchus xylophilus. The untreated group was treated with only 250 μg/ml Tween@ 20 without chemical agents in the same manner. The results are shown in FIGS. 7A to 7C and Tables 13 and 14.

[3] = tested on: Bursaphelenchus xylophilus; experiment: Pine wilt disease seedling test of aerial spraying formulations (Example 11); settings: EB control group; 40 days after inoculation
Method: In order to investigate the control effects of the Bacillus subtilis JCK-1398 strain against pine wilt disease through aerial spraying in adult trees, a novel formulation was prepared. The JCK-1398 10% SC formulation was formulated with a composition of a spray-dried powder of JCK-1398 (10.0%), CR-NF 135B (3.0%), xanthan gum (0.01%), a defoamer (0.1%), propylene glycol (5.0%), sodium benzoate (0.2%), and water (81.69%).
The JCK-1398 10% SC formulation and the JCK-1398 20% SC formulation (existing formulation, Example 9) each were prepared into 10-fold, 100-fold, and 500-fold diluted solutions, and each pine tree aged 3 years was foliar-sprayed with 100 μl ( 1/50 of the existing treatment amount) of each of the diluted solutions twice at an interval of 7 days, 2 weeks and 1 week before inoculation. Last, the inoculation with Bursaphelenchus xylophilus was performed 7 days after the second treatment with the diluted solution by the same method as in Example 4-4, and the degree of wilting was determined 40 days after the inoculation with Bursaphelenchus xylophilus.

[4] = tested on: Xanthomonas euvesicatoria; experiment: Control effect against bacterial spot on chili pepper plants; settings: control agrochemical, 1,000-fold diluted solution
Method: To 500-fold and 5,000-fold diluted solutions of a spray-dried powder of the JCK-1398 strain prepared by the same method as in Example 8 were added the surfactant Tween® 20 (250 μg/ml), and then 8- to 9-leaf stage chili pepper plants (Hungnong Seed, Bultap chili pepper) were treated with the resultant solutions at 20 ml per pot by soil drenching and foliar spraying. Each sample was applied 4 days before inoculation with Xanthomonas euvesicatoria inoculum. As for a control group, the synthetic agrochemical pesticides Sungbocycline wettable powder (oxytetracycline, SUNGBO Chemicals) and Ilpum wettable powder (oxolinic acid 20% WP, Dongbang Agro) each were applied at a predetermined amount (1,000-fold diluted solution), and as for an untreated group, only Tween® 20 (250 μg/ml) was applied in the same manner without chemical agents.
Then, Xanthomonas euvesicatoria was subjected to static culture in TSA at 30° C. for about 48 hours, and then the cells were harvested using 2 ml of sterile water. The inoculum was prepared by diluting the harvested Xanthomonas euvesicatoria to an optical density value of 0.1 at 600 nm through a UV spectrometer. […]
Each treatment was repeated three times, and each experiment was repeated twice. The disease severity was determined using an index of 0 to 6 according to Abbasi, and thus the severity of bacterial spot formed on chili pepper leaves was investigated. […]

## emamectin benzoate [EB]
[1]
  Control value (%): 97.0%
[2]; 1 Month after inoculation
  Disease severity (%): 0%
[2]; 2 Months after inoculation
  Disease severity (%): 1%
[2]; 3 Months after inoculation
  Disease severity (%): 2.5%
[2]; 4 Months after inoculation
  Disease severity (%): 7.5%
[2]; 5 Months after inoculation
  Disease severity (%): 7.5%
[2]; 6 Months after inoculation
  Disease severity (%): 10%
[2]; 2018-Year field test, powder 50-fold diluted, 20,000 nematodes
  Control value (%): 86.2%
[2]; 2019-Year field test, 20% SC 2000-fold diluted, 10,000 nematodes
  Control value (%): 75%
[3]
  Control value (%): 100.0%

## CCn1cc(C(=O)O)c(=O)c2cc3c(cc21)OCO3 [Oxolinic acid, oxolinic acid]
[4]; Folia spraying
  Control value (%): 27.1%

## CN(C)[C@@H]1C(O)=C(C(N)=O)C(=O)[C@@]2(O)C(O)=C3C(=O)c4c(O)cccc4[C@@](C)(O)[C@H]3[C@H](O)[C@@H]12 [Oxytetracyclin, oxytetracycline]
[4]; Soil drenching
  Control value (%): 20.8%
